Measurements published in patent US20260034277A1, “SYSTEMS AND METHODS FOR PATHOGEN INACTIVATION OF BLOOD PRODUCTS” (Cerus Corporation, priority 2024, published 2026).

Experiments:
Type in all cases: cell-based
Klebsiella pneumoniae = Klebsiella pneumoniae inactivation in platelet units with amotosalen/UVA, colony forming unit assay
Protocol: A study was performed to evaluate pathogen inactivation with treatment profiles from Example 1 and the bacterium Klebsiella pneumoniae. Units of platelets, prepared in 47% plasma/53% PAS at a volume of 250 mL (except the 70 μM study group at a volume of 200 mL), were inoculated with an overnight culture of Klebsiella pneumoniae (targeting the final concentration in unit of approximately 6 log CFU/mL) and dosed with the target amotosalen concentration (40 μM, 45 μM, 55 μM or 70 μM) in an illumination container of an INTERCEPT® Blood System processing set. The units were mixed well, and samples were collected from each unit prior to UV illumination to determine pre-treatment bacterial titers and amotosalen concentration. The Klebsiella-contaminated platelet units were then subjected to a UVA light dose of 3.8 J/cm^2 (3.2 J/cm^2 for the 200 mL units) using an illuminator with LED light sources having peak wavelength between 340-350 nm. Samples were collected post-illumination and both the pre- and post-UVA illumination samples were analyzed by standard colony forming unit assay to determine the level of bacterial inactivation.
A similar study was performed with the bacterium Klebsiella pneumoniae. Four units of platelets in 47% plasma/53% PAS at a volume of 450 mL were inoculated in a 1.3 L illumination container with an overnight culture of Klebsiella pneumoniae at a target input pathogen concentration of approximately 8 log CFU/mL per unit and dosed with S-59 to achieve a target concentration of 55 μM. Samples were collected pre- and post-UVA illumination with a light dose of 6.3 J/cm^2 for determination of bacterial titers by standard colony forming unit assay and S-59 concentration by HPLC.

bluetongue virus (BTV) = assay: Bluetongue virus inactivation in platelet units with amotosalen/UVA, plaque assay
Protocol: A study was performed to evaluate pathogen inactivation with treatment profiles from Example 1 and the non-enveloped virus bluetongue virus (BTV). Units of platelets, prepared in 47% plasma/53% PAS at a volume of 250 mL, were inoculated with BTV (targeting the final concentration in unit of approximately 4.5 log PFU/mL), and dosed with the target amotosalen concentration (40 μM, 50 μM, 60 μM, or 70 μM) in an illumination container of an INTERCEPT® Blood System processing set. The units were mixed well, and samples were collected from each unit prior to UV illumination to determine pre-treatment viral titers and amotosalen concentration. The BTV-contaminated platelet units were then subjected to a UVA light dose of 3.8 J/cm^2 using an illuminator with LED light sources having peak wavelength between 340-350 nm. Samples were collected post-illumination, and both the pre- and post-UVA illumination samples were analyzed by standard plaque assay to determine the level of virus inactivation.
Pathogen inactivation of both viruses and bacteria was also tested using dosing device system-based quantized dosing of amotosalen and the treatment parameters described above. In one study, four units of platelets in 47% plasma/53% PAS at a higher 450 mL volume were inoculated in a 1.3 L illumination container with bluetongue virus (BTV) at a target pathogen input concentration of approximately 5.0 log PFU/mL per unit and dosed with amotosalen (S-59) to achieve at a target concentration of 55 μM. The units were mixed, and samples were collected from each unit prior to UV illumination to determine pre-treatment viral titers and S-59 concentration. The BTV-contaminated platelet units were then subjected to a UVA light dose of 6.3 J/cm^2 using an illuminator with LED light sources having peak wavelength between 340-350 nm. Samples were collected post-illumination, and both the pre- and post-UVA illumination samples were analyzed by standard plaque assay to determine the level of virus inactivation and by HPLC to determine the S-59 concentration.

adenovirus type 5 (Ad5) = assay: Adenovirus type 5 inactivation in platelet units with amotosalen/UVA, plaque assay; details: for Log Reduction / Post-UVA PFU/mL: 250 mL platelets, UVA 3.8 J/cm^2
Protocol: Another study was performed evaluating pathogen inactivation with treatment profiles from Example 1 and the non-enveloped virus adenovirus type 5 (Ad5). Units of platelets, prepared in 47% plasma/53% PAS at a volume of 250 mL, were inoculated with Ad5 (targeting the final concentration in unit of approximately 4.5 or 6.5 log PFU/mL), and dosed with the target amotosalen concentration (45 μM or 50 μM) in an illumination container of an INTERCEPT® Blood System processing set. The units were mixed well, and samples were collected from each unit prior to UV illumination to determine pre-treatment viral titers and amotosalen concentration. The Ad5-contaminated platelet units were then subjected to a UVA light dose of 3.8 J/cm^2 using an illuminator with LED light sources having peak wavelength between 340-350 nm. Samples were collected post-illumination and both the pre- and post-UVA illumination samples were analyzed by standard plaque assay to determine the level of virus inactivation.

[1] = device-dosed S-59 target 55 μM, 450 mL platelets, 1.3 L container, UVA 6.3 J/cm^2
[2] = target S-59 40 μM, 250 mL platelets, UVA 3.8 J/cm^2
[3] = target S-59 45 μM, 250 mL platelets, UVA 3.8 J/cm^2
[4] = target S-59 55 μM, 250 mL platelets, UVA 3.8 J/cm^2
[5] = target S-59 70 μM, 200 mL platelets, UVA 3.2 J/cm^2
[6] = target S-59 50 μM, 250 mL platelets, UVA 3.8 J/cm^2
[7] = target S-59 60 μM, 250 mL platelets, UVA 3.8 J/cm^2
[8] = target S-59 70 μM, 250 mL platelets, UVA 3.8 J/cm^2
[9] = target S-59 45 μM, Pre-UVA 4.1 Log PFU/mL
[10] = target S-59 50 μM, Pre-UVA 4.5 Log PFU/mL
[11] = target S-59 50 μM, Pre-UVA 6.7 Log PFU/mL

## Cc1oc2c(C)c3oc(=O)cc(C)c3cc2c1COCCN [S-59, 3-(2-aminoethoxymethyl)-2,5,9-trimethylfuro[3,2-g]chromen-7-one]
Klebsiella pneumoniae; [1]
  Post-UVA titer: 0.3 ± 0.4 cfu/mL
Klebsiella pneumoniae; each of the four target amotosalen input concentrations (40, 45, 55, 70 μM)
  bacterial inactivation (log reduction): greater than 5 logs
Klebsiella pneumoniae; [2]
  Log Reduction: 5.6 ± 0.8 log
  Post-UVA CFU/mL: 6.7 ± 11.5 CFU/mL
Klebsiella pneumoniae; [3]
  Log Reduction: 5.9 ± 0.0 log
  Post-UVA CFU/mL: 0.2 ± 0.1 CFU/mL
Klebsiella pneumoniae; [4]
  Log Reduction: 6.0 ± 0.1 log
  Post-UVA CFU/mL: 0.4 ± 0.5 CFU/mL
Klebsiella pneumoniae; [5]
  Log Reduction: ≥6.1 ± 0.1 log
  Post-UVA CFU/mL: 0.03 ± 0.1 CFU/mL
Bluetongue virus (BTV); [1]
  Log Reduction: 5.0±0.4 Log (pfu/mL)
  Post-UVA titer: 0.7 ± 0.6 pfu/mL
Bluetongue virus (BTV); each of the four target amotosalen input concentrations (40, 50, 60, 70 μM)
  viral inactivation: greater than 4 logs
Bluetongue virus (BTV); [2]
  Log Reduction: 4.4 ± 0.1 log
  Post-UVA PFU/mL: 0.3 ± 0.1 PFU/mL
Bluetongue virus (BTV); [6]
  Log Reduction: 4.4 ± 0.4 log
  Post-UVA PFU/mL: 0.1 ± 0.1 PFU/mL
Bluetongue virus (BTV); [7]
  Log Reduction: >4.6 ± 0.5 log
  Post-UVA PFU/mL: 0.02 ± 0.03 PFU/mL
Bluetongue virus (BTV); [8]
  Log Reduction: 4.2 ± 0.1 log
  Post-UVA PFU/mL: 0.1 ± 0.2 PFU/mL
Adenovirus type 5 (Ad5); each of the 45 μM or 50 μM target amotosalen input concentrations
  viral inactivation: greater than 4 logs
Adenovirus type 5 (Ad5); [9]
  Log Reduction: >4.1 ± 0.2 log
  Post-UVA PFU/mL: 0.0 ± 0.0 PFU/mL
Adenovirus type 5 (Ad5); [10]
  Log Reduction: 4.5 ± 0.0 log
  Post-UVA PFU/mL: 0.0 ± 0.0 PFU/mL
Adenovirus type 5 (Ad5); [11]
  Log Reduction: ≥6.3 ± 0.5 log
  Post-UVA PFU/mL: ≤6.9 ± 12.7 PFU/mL
